In US20150359815A1, “PAK1 INHIBITION FOR TREATMENT OF ACUTE MYELOID LEUKEMIA AND MYELODYSPLASTIC SYNDROMES” (ALBERT EINSTEIN COLLEGE OF MEDICINE OF YESHIVA UNIVERSITY, priority 2013, published 2015):

Experiments:
[1] = tested on: THP1 AML cells; experiment: Survival of mice injected with THP1 cells expressing PAK1 shRNA; type: in vivo; settings: for liver infiltration of leukemia cells: animals receiving THP1 with shRNA vs control cells, not illustrated; for survival of mice: mice injected with 300,000 THP1 cells expressing shRNA, vs non-silencing control shRNA, FIG. 12B
Description: FIG. 12A-12B, Evaluation of PAK1 expression reduction in THP1 AML cells by shRNAs, A) Evaluated mRNA levels by RT-gPCR.
The effects on survival of reduced PAK1 expression in THP1 AML cells when expression was reduced by shRNAs was evaluated in mice.

[2] = tested on: THP1 AML cells; experiment: Cell proliferation assay, THP1 AML cells; type: cell-based, human; settings: FIG. 2, FIG. 7
Description: (§1) Cell proliferation, cell cycle, and apoptosis assays. For cell proliferation assays, manual cell counts were performed by culturing cells in 24- or 48-well plates. Viable cells were counted using trypan blue exclusion and cell density was re-adjusted in each well every 3-5 days. For cell cycle assays, the Click-iT™ EdU Flow Cytometry Assay system (Invitrogen) was used following the manufacturer's instructions. For apoptosis assays, apoptotic and necrotic cells were analyzed by use of Annexin V/DAPI staining.

[3] = tested on: HL60 AML cells; experiment: Cell proliferation assay, HL60 AML cells; type: cell-based, human; settings: FIG. 2, FIG. 3
Description: as §1

[4] = tested on: MOLM13; experiment: Cell proliferation assay, MOLM13 AML cells; type: cell-based, human; settings: FIG. 2
Description: as §1

[5] = tested on: AML and MDS cells isolated from the bone marrow of AML and MDS patients; experiment: Growth of primary patient AML/MDS cells versus healthy donor hematopoietic cells; type: cell-based, human; settings: primary bone marrow and peripheral blood samples; *p<0.05, **p<0.01; FIG. 5
Description: The experiments illustrated in FIG. 5 were performed using primary bone marrow and peripheral blood samples given by healthy donors and by patients with acute myeloid leukemia.

[6] = tested on: AML cells; experiment: Apoptosis assay (Annexin V/DAPI), AML cells; type: cell-based; settings: 24 hours of incubation, FIG. 6
Description: FIG. 6. […] 24 hours of incubation with Compound 1 (assay by Annexin V/DAPI), Black—Percentage of live cells; Grey—Percentage of apoptotic cells.
as §1

[7] = tested on: STAT4; experiment: STAT4 expression in THP1 cells (Western Blot, qRT-PCR); type: cell-based, human; settings: FIG. 10
Description: FIG. 10A-10B. STAT4 expression is increased upon treatment with Compound 1 (IPA-3) or PAKI shRNA knockdown in THP1 cells. A) Western Blot; B) qRT-PCR.
Quantitative real-time PCR. Total RNA was extracted from FACS-sorted cells or cultured cells using RNeasy Micro kit (Qiagen, Valencia, Calif.). cDNA was synthesized by Superscript II reverse transcriptase (Invitrogen, Carlsbad, Calif.). Real-time PCR was performed using an iQ5 real-time PCR detection system (BIO-RAD, Hercules, Calif.) with 1 cycle of 50° C. (2 min) and 95° C. (10 min) followed by 40 cycles of 95° C. (15 sec) and 60° C. (1 min) using Power SYBR Green PCR master mix (AB, Carlsbad, Calif.).
Western blotting. Total cell lysates were extracted in lysis buffer (50 mM Tris-Cl (pH 7.5), 1 mM EDTA, 150 mM NaCl, 1%NP-40, 1% sodium deoxycholate, 1 mM PMSF, and protease inhibitor (Roche)). Anti-Hlx polyclonal rabbit antibody (SantaCruz, clone H-130, sc-135014) and anti-actin polyclonal goat antibody (Santa Cruz, clone C-11, sc1615) were used as primary antibodies, […] anti-rabbit or anti-goat antibody (Santa Cruz) were used as secondary antibodies. ECL solution (Pierce) was used for detection.
(§2) In contrast, STAT4 expression is increased upon treatment with Compound 1 or PAK1 shRNA knockdown in THP1 cells (FIG. 10).

[8] = tested on: cells from a patient with myelodysplastic syndrome (MDS); experiment: Colony formation of cells from a patient with myelodysplastic syndrome; type: cell-based, human; settings: FIG. 8
Description: FIG. 8. Compound 1-mediated inhibition of PAK1: effects on colony formation of cells from a patient with myelodysplastic syndrome (MDS). Inhibition of PAKI is effective in both myelodysplastic syndrome (MDS) and acute myeloid leukemia (AML).
(§3) Colony, formation assays and serial replating assays. Assays were performed in MethoCult M3434 (Stern Cell Technologies, Vancouver, BC) containing IL-3, IL-6, SCF, and EPO or in MethoCult M3234 supplemented with M-CSF or GM-CSF as previously described (Higuchi et al, 2002; Huntly et al, 2004;Will et al, 2009). GFP+ colonies were scored 8-10 days after plating using an AXIOVERT 200M microscope (Zeiss, Maple Grove, Minn.). After scoring, GFP+ cells were re-sorted after each round and then serial replating assays were carried out. Cells were replated and colonies were again scored after 10-14 days.
FIG. 8 illustrates Compound 1-mediated inhibition of PAK1 effects on colony formation of cells from a patient with myelodysplastic syndrome (MDS) Inhibition of PAK1 is effective in both myelodysplastic syndrome (MDS) and acute myeloid leukemia (AML). See also FIG. 5.

[9] = tested on: KG1a AML cells; experiment: Cell proliferation assay, KG1a AML cells; type: cell-based, human; settings: FIG. 2
Description: as §1

[10] = tested on: AML cells; experiment: Colony formation assay, AML cells; type: cell-based; settings: FIG. 4
Description: as §3

[11] = tested on: downstream signaling pathways of PAK1; experiment: Phosphorylation status of kinases in THP1 leukemia cells; type: cell-based, human; settings: 4 hours, 6 μg/ml IPA-3 vs DMSO, FIG. 9
Description: FIG. 9. Effect of Compound 1 (IPA-3) on downstream signaling pathways of PAKI.
as §2

For “shRNA #2: short hairpin sequence for human PAK1, GCGATCCTAAGAAGAAATATA, expressed by lentivirus (the letters are possibly those of the target site)”, the “liver infiltration of leukemia cells” value [1] was “Significantly less liver infiltration of leukemia cells”, the “long-term survival of some mice” value ([1]; entire duration of the assay (90 days)) was “long-term survival” and the survival of mice [1] was “Significant prolongation of survival”.

`Cc1nc(Nc2n[nH]c3c2CN(C(=O)N[C@H](CN(C)C)c2ccccc2)C3(C)C)c2sccc2n1` [Compound 2, (S)-N-(2-(dimethylamino)-1-phenylethyl)-6,6-dimethyl-3-((2-methylthieno[3,2-d]pyrimidin-4-yl)amino)-4,6-dihydropyrrolo[3,4-c]pyrazole-5(1H)-carboxamide] was tested, and the “proliferation of THP1 AML cells” value [2] was “reduces proliferation”.

In the case of “shRNA #1: short hairpin sequence for human PAK1, CGATGAGAAATACCAGCACTA, expressed by lentivirus (the letters are possibly those of the target site)”, the “liver infiltration of leukemia cells” value [1] is reported as “Significantly less liver infiltration of leukemia cells” and the survival of mice [1] is reported as “Significant prolongation of survival”.

For `Oc1ccc2ccccc2c1SSc1c(O)ccc2ccccc12` [Compound 1, 1,1′-Disulfanediyldinaphthalen-2-ol], the “proliferation of THP1 AML cells” value [2] was “reduces proliferation”, the “proliferation of HL60 AML cells” value [3] was “reduces proliferation” and the “proliferation of MOLM13 AML cells” value [4] was “reduces proliferation”. The “effect on growth of AML and MDS patient cells compared with healthy hematopoietic cells” value [5] was “greater effect”, the “apoptosis in AML cells” value [6] was “induces apoptosis” and the STAT4 expression [7] was “increased”. The “colony formation of cells from a patient with MDS” value [8] was “effective”, the “proliferation of KG1a AML cells” value [9] was “reduces proliferation” and the “colony formation ability of AML cells” value [10] was “reduces colony formation ability”. The “several additional oncogenic signaling pathways (kinase phosphorylation status)” value [11] was “significantly inhibited”.
